According to the supplement of paper PMC10949913:

What was measured:
Test in all cases: area under concentration-response curve (viability) (AUC (a.u.)); higher = less active
Conditions in all cases: 48 h
NCI-H295R = system: NCI-H295R
Procedure, shortened: (§1)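 Three adrenocortical carcinoma cell lines were exposed for 48 h to library compounds at 11 concentrations in 1,536-well plates, then read by CellTiter-Glo luminescence. Signals were scaled per plate against vehicle and empty-well controls. From fitted concentration-response curves of inhibitory or non-responding classes alone, AC50 and area under the curve were obtained.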

CU-ACC2 = system: CU-ACC2
Procedure, shortened: as §1

CU-ACC1 = system: CU-ACC1
Procedure, shortened: as §1

| Structure (SMILES) | area under concentration-response curve (NCI-H295R) | area under concentration-response curve (CU-ACC2) | area under concentration-response curve (CU-ACC1) |
| --- | --- | --- | --- |
| OCCC#Cc1nc(-c2ccc(F)cc2)c(-c2ccncc2)n1CCCc1ccccc1 | 475 | 536 | 513 |
| C[N]1C=C(C2=CC=CC=C12)/C3=C(/C(=O)NC3=O)C4=C[N](C)C5=CC(=CC=C45)[N+]([O-])=O | 454 | 608 | 611 |
| Cc1nn(C)c(COc2ccc(N3CCN([S+](=O)([O-])N(C)C)CC3)cc2)c1-c1cccc2c(CCCOc3cccc4ccccc34)c(C(=O)O)n(CCN3CCOCC3)c12 | 508 | 580 | 517 |
| CCCCCOC(=O)NC\1=N\C(=O)N(\C=C1F)[C@@H]2O[C@H](C)[C@@H](O)[C@H]2O | 559 | 606 | 512 |
| COc1cc([S+](C)(=O)[O-])ccc1Nc1nc2ccc(-c3ccc(NC(=O)[C@H](C)c4ccc(F)cc4)cc3)cn2n1 | 567 | 648 | 565 |
| Cc1c(F)cccc1NC(=O)Nc1ccc(Cl)c([S+](=O)([O-])[C@H]2CCCNC2)c1O | 552 | 545 | 540 |
| Cc1coc2c1C(=O)C(=O)c1c-2ccc2c1CCCC2(C)C | 456 | 479 | 433 |
| CC(C)C[C@H](CN)CC(=O)O | 545 | 595 | 474 |
| Cn1cc(-c2ccc(-c3cncc(Cl)c3N3CCC4(CCNC4=O)CC3)cc2)cn1 | 514 | 622 | 521 |
| CCC1=C(C)CN(C(=O)NCCc2ccc(S(=O)(=O)NC(=O)N[C@H]3CC[C@H](C)CC3)cc2)C1=O | 559 | 600 | 508 |
| Nc1nc(N)c2nc(CNc3ccc(C(=O)NC(CCC(=O)O)C(=O)O)cc3)cnc2n1 (stereo unspecified) | 515 | 543 | 458 |
| CC(C)CC(=O)N[C@H](C(=O)N[C@H](C(=O)N[C@@H](CC(C)C)[C@@H](O)CC(=O)N[C@@H](C)C(=O)N[C@@H](CC(C)C)[C@@H](O)CC(=O)O)C(C)C)C(C)C | 485 | 538 | 537 |
| COc1cccc(Nc2c(C(N)=O)cnc3c(C)cc([S+](=O)([O-])c4cccc(C(=O)N(C)C)c4)cc23)c1 | 545 | 578 | 466 |
| COc1ccc(C(=O)N2CCN(c3ccc4c(c3)CCC(=O)N4)CC2)cc1OC | 554 | 562 | 458 |
| C#C[C@]1(O)CC[C@H]2[C@@H]3CCc4cc(O)ccc4[C@H]3CC[C@@]21C | 538 | 611 | 525 |
| O=C(NCC1CCCCN1)c1cc(OCC(F)(F)F)ccc1OCC(F)(F)F (stereo unspecified) | 525 | 527 | 431 |
| COC1=CC=C(C=C1)C/2=C(OC3O[C@@H](C)[C@H](O)[C@@H](O)[C@H]3O)/C(=O)C4=C(O2)C(=C(OC5O[C@H](CO)[C@@H](O)[C@H](O)[C@H]5O)C=C4O)CC=C(C)C (stereo partly specified) | 564 | 624 | 510 |
| CN1\C(=C(\O)C2=C(C=CC=C2)[S+]1([O-])=O)C(=O)NC3=CC=CC=N3 | 464 | 495 | 432 |
| C[C@H](NC(=O)CCC(F)(F)F)C(=O)N[C@@H]1C(=O)N(CCO)c2ncccc2-c2ccccc21 | 475 | 511 | 472 |

| Structure (SMILES) | area under concentration-response curve (NCI-H295R) | area under concentration-response curve (CU-ACC2) | area under concentration-response curve (CU-ACC1) |
| --- | --- | --- | --- |
| Cc1nc(C)c(CN2CCN(C(c3ccc(F)cc3)c3ccc(F)cc3)CC2)nc1C | 471 | 563 | 481 |
| CNCCN(C)Cc1c[nH]nc1-c1ccc(O[C@H]2C[C@H](OCCC3CCOCC3)C2)cc1 | 546 | 512 | 520 |
| CC(C)(NC(=O)O[C@@H]1CN2CCC1CC2)c1csc(-c2ccc(F)cc2)n1 | 480 | 477 | 479 |
| C[C@@H]1O[C@@H](O[C@@H]2\C=C/C=C\C=C/C=C\C[C@H](C)OC(=O)/C=C\[C@H]3O[C@@H]3C[C@H](O)C[C@]3(O)C[C@@H](O)[C@@H](C(=O)O)[C@H](C2)O3)[C@H](O)[C@H](N)[C@@H]1O | 573 | 572 | 395 |
| NC(=O)[C@@H](CC1CC1)[C@@H](CCC(F)(F)F)C(=O)N[C@H]2\N=C(C3=CC=CC=C3)/C4=CC=CC(=C4NC2=O)F | 541 | 573 | 543 |
| OCCn1cc(-c2cnc3nnn(Cc4ccc5ncccc5c4)c3n2)cn1 | 543 | 600 | 497 |
| CCC[C@@H]1C[C@@H](C(=O)N[C@@H]([C@H]2O[C@H](SC)[C@H](O)[C@@H](O)[C@H]2O)[C@H](C)Cl)N(C)C1 | 541 | 458 | 527 |
| O=C(C[C@@H]1C/C=C\CCC(=O)O[C@H](c2ccccc2)CNC1=O)NCc1ccc(Cl)cc1 | 569 | 620 | 526 |
| OC(CCN1CCCCC1)(C2CC\3CC2\C=C3)C4=CC=CC=C4 (stereo unspecified) | 519 | 582 | 522 |
| Clc1cccc(-c2ccc(-c3nnc(CCCc4ccc5cccnc5n4)o3)cc2)c1 | 594 | 627 | 547 |
| Cn1c(/C=C/CO)c(CO)c2c1C(=O)C=C(N1CC1)C2=O | 514 | 580 | 461 |
| C/C(O)=C(\C#N)C(=O)Nc1ccc(C(F)(F)F)cc1 | 524 | 607 | 503 |
| CN(C)[C@H]\1[C@@H]2[C@@H](O)[C@@H]\3C(=C)C4=C(C(=CC=C4)O)C(=O)C3=C(\O)[C@@]2(O)C(=O)\C(=C1O)C(N)=O | 540 | 473 | 493 |
| CC(=O)OC[C@@H]1O[C@H]([C@H](OC(C)=O)[C@@H]1OC(C)=O)N2\C=C/C(=O)NC2=O | 459 | 521 | 497 |
| COc1cc2c(cc1OC)CN(CCc1ccc(NC(=O)c3cc(OC)c(OC)cc3NC(=O)c3cnc4ccccc4c3)cc1)CC2 | 569 | 640 | 560 |
| C[C@@H]1COCCN1C\2=C\C(=O)N\3CC[C@H](N(CC4=CN=CC(=C4)Cl)C3=N2)C(F)(F)F | 590 | 661 | 550 |
| CCCCN(CCCC)CC(O)c1cc(Cl)cc2c1-c1ccc(Cl)cc1/C2=C/c1ccc(Cl)cc1 (stereo unspecified) | 582 | 631 | 546 |
| NC(=O)NO | 511 | 590 | 503 |
